# Experimental data published in patent publication US8012956B2, “Tropane compounds” (Exelixis, Inc., priority 2007, dated 2011).
# Target: HSP90 (Homo sapiens, UniProt P07900)
# Test: HSP90 inhibition (HSP90 IC50)
# Format: biochemical
row,IC50 [nM],SMILES
1,1000 to 2000,NC(=O)c1ccc(C(=O)N[C@H]2C[C@H]3CC[C@@H](C2)N3c2ccc(C(=O)C3CC3)cn2)s1 [N-{8-[5-(cyclopropylcarbonyl)pyridin-2-yl]-8-azabicyclo[3.2.1]oct-3-endo-yl}thiophene-2.5-dicarboxamide]
2,< 500,"Cc1cc(C(N)=O)c(NCC(C)C)cc1C(=O)N[C@H]1C[C@H]2CC[C@@H](C1)N2c1ccc(C(=O)C2CC2)cn1 [N-{8-[5-(cyclopropylcarbonyl)pyridine-2-yl]-8-azabicyclo[3.2.1]oct-3-endo-yl}-2-methyl-5-[(2-methylpropyl)amino]benzene-1,4-dicarboxamide]"
3,< 500,"CCC(Nc1cc(C(=O)N[C@H]2C[C@H]3CC[C@@H](C2)N3c2ccc(C(=O)C3CC3)cn2)c(C)cc1C(N)=O)C(F)(F)F (stereo partly drawn) [N-{8-[5-(cyclopropylcarbonyl)pyridine-2-yl]-8-azabicyclo[3.2.1]oct-3-endo-yl}-2-methyl-5-{[1-(trifluoromethyl)propyl]amino}benzene-1,4-dicarboxamide]"
4,< 500,"CC[C@H](C)Nc1cc(C(=O)NC2CC3CCC(C2)N3c2ccc(C(=O)C3CC3)cn2)c(C)cc1C(N)=O (stereo partly drawn) [N-{8-[5-(cyclopropylcarbonyl)pyridine-2-yl]-8-azabicyclo[3.2.1]oct-3-endo-yl}-2-methyl-5-{[(1S)-1-methylpropyl]amino}benzene-1,4-dicarboxamide]"
5,< 500,"CCC(CC)Nc1cc(C(=O)N[C@H]2C[C@H]3CC[C@@H](C2)N3c2ccc(C(=O)C3CC3)cn2)c(C(F)(F)F)cc1C(N)=O [N-{8-[5-(cyclopropylcarbonyl)pyridine-2-yl]-8-azabicyclo[3.2.1]oct-3-endo-yl}-5-[(1-ethylpropyl)amino]-2-(trifluoromethyl)benzene-1,4-dicarboxamide]"
6,2000 to 10000,COc1cccc(C(=O)N[C@H]2C[C@H]3CC[C@@H](C2)N3c2ccc(C(=O)NN)cn2)c1C [N-{8-[5-(hydrazinocarbonyl)pyridin-2-yl]-8-azabicyclo[3.2.1]oct-3-endo-yl}-2-methyl-3-(methyloxy)benzamide]
7,< 500,"CCN1CCC[C@@H](NC(=O)c2ccc(N3C4CCC3CC(NC(=O)c3cc(C)c(C(N)=O)cc3C)C4)nc2)C1 (stereo partly drawn) [N-{8-[5-({[(3R)-1-ethylpiperidin-3-yl]amino}carbonyl)pyridin-2-yl]-8-azabicyclo[3.2.1]oct-3-endo-yl}-2,5-dimethylbenzene-1,4-dicarboxamide]"
8,< 500,"CCN1CC[C@@H](NC(=O)c2ccc(N3C4CCC3CC(NC(=O)c3cc(C)c(C(N)=O)cc3C)C4)nc2)C1 (stereo partly drawn) [N-{8-[5-({[(3R)-1-ethylpyrrolidin-3-yl]amino}carbonyl)pyridin-2-yl]-8-azabicyclo[3.2.1]oct-3-endo-yl}-2,5-dimethylbenzene-1,4-dicarboxamide]"
9,500 to 999,"CCN1CCC[C@H](NC(=O)c2ccc(N3C4CCC3CC(NC(=O)c3cc(C)c(C(N)=O)cc3C)C4)nc2)C1 (stereo partly drawn) [N-{8-[5-({[(3S)-1-ethylpiperidin-3-yl]amino}carbonyl)pyridin-2-yl]-8-azabicyclo[3.2.1]oct-3-endo-yl}-2 5-dimethylbenzene-1,4-dicarboxamide]"
10,< 500,"CCN1CC[C@H](NC(=O)c2ccc(N3C4CCC3CC(NC(=O)c3cc(C)c(C(N)=O)cc3C)C4)nc2)C1 (stereo partly drawn) [N-{8-[5-({[(3S)-1-ethylpyrrolidin-3-yl]amino}carbonyl)pyridin-2-yl]-8-azabicyclo[3.2.1]oct-3-endo-yl}-2,5-dimethylbenzene-1,4-dicarboxamide]"
11,1000 to 2000,"Cc1cnc(CNC(=O)c2ccc(N3[C@@H]4CC[C@H]3C[C@@H](NC(=O)c3ccc(C(N)=O)cc3)C4)nc2)cn1 [N-{8-[5-({[(5-methylpyrazin-2-yl)methyl]amino}carbonyl)pyridin-2-yl]-8-azabicyclo[3.2.1]oct-3-endo-yl}benzene-1,4-dicarboxamide]"
12,< 500,COc1ccc([C@H](C)NC(=O)c2ccc(N3C4CCC3CC(NC(=O)c3cccc(OC)c3C)C4)nc2)c(F)c1 (stereo partly drawn) [N-{(1S)-1-[2-fluoro-4-(methyloxy)phenyl]ethyl}-6-[3-endo-({[2-methyl-3-(methyloxy)phenyl]carbonyl}amino)-8-azabicyclo[3.2.1]oct-8-yl]pyridine-3-carboxamide]
13,500 to 999,CCNC(=O)[C@@H](NC(=O)c1ccc(N2C3CCC2CC(NC(=O)c2cccc(OC)c2C)C3)nc1)c1ccc(OC)cc1 (stereo partly drawn) [N-{(1S)-2-(ethylamino)-1-{4-(methyloxy)phenyl]-2-oxoethyl}-6-[3-endo-({[2-methyl-3-(methyloxy)phenyl]carbonyl}amino)-8-azabicyclo[3.2.1]oct-8-yl]pyridine-3-carboxamide]
14,500 to 999,CNC(=O)[C@@H](NC(=O)c1ccc(N2C3CCC2CC(NC(=O)c2cccc(OC)c2C)C3)nc1)c1ccc(OC)cc1 (stereo partly drawn) [N-{(1S)-2-(methylamino)-1-[4-(methyloxy)phenyl]-2-oxoethyl}-6-[3-endo-({[2-methyl-3-(methyloxy)phenyl]carbonyl}amino)-8-azabicyclo[3.2.1]oct-8-yl]pyridine-3-carboxamide]
15,500 to 999,COc1ccc([C@H](NC(=O)c2ccc(N3C4CCC3CC(NC(=O)c3cccc(OC)c3C)C4)nc2)C(N)=O)cc1 (stereo partly drawn) [N-{(1S)-2-amino-1-[4-(methyloxy)phenyl]-2-oxoethyl}-6-[3-endo-({[2-methyl-3-(methyloxy)phenyl]carbonyl}amino)-8-azabicyclo[3.2.1]oct-8-yl]pyridine-3-carboxamide]
16,2000 to 10000,"COc1cccc(C(=O)N[C@H]2C[C@H]3CC[C@@H](C2)N3c2ccc(C(=O)NCc3cccc(OC)c3OC)cn2)c1C [N-{[2,3-bis(methyloxy)phenyl]methyl}-6-[3-endo-({[2-methyl-3-(methyloxy)phenyl]carbonyl}amino)-8-azabicyclo[3.2.1]oct-8-yl]pyridine-3-carboxamide]"
17,500 to 999,"COc1ccc(CNC(=O)c2ccc(N3[C@@H]4CC[C@H]3C[C@@H](NC(=O)c3cccc(OC)c3C)C4)nc2)c(OC)c1 [N-{[2,4-bis(methyloxy)phenyl]methyl}-6-[3-endo-({[2-methyl-3-(methyloxy)phenyl]carbonyl}amino)-8-azabicyclo[3.2.1]oct-8-yl]pyridine-3-carboxamide]"
18,< 500,"COc1cc(F)c(CNC(=O)c2ccc(N3[C@@H]4CC[C@H]3C[C@@H](NC(=O)c3cccc(OC)c3C)C4)nc2)c(F)c1 [N-{[2,6-difluoro-4-(methyloxy)phenyl]methyl}-6-[3-endo-({[2-methyl-3-(methyloxy)phenyl]carbonyl}amino)-8-azabicyclo[3.2.1]oct-8-yl]pyridine-3-carboxamide]"
19,500 to 999,CCOc1ccccc1CNC(=O)c1ccc(N2[C@@H]3CC[C@H]2C[C@@H](NC(=O)c2cccc(OC)c2C)C3)nc1 [N-{[2-(ethyloxy)phenyl]methyl}-6-[3-endo-({[2-methyl-3-(methyloxy)phenyl]carbonyl}amino)-8-azabicyclo[3.2.1]oct-8-yl]pyridine-3-carboxamide]
20,< 500,COc1ccc(CNC(=O)c2ccc(N3[C@@H]4CC[C@H]3C[C@@H](NC(=O)c3cccc(OC)c3C)C4)nc2)c(Cl)c1 [N-{[2-chloro-4-(methyloxy)phenyl]methyl}-6-[3-endo-({[2-methyl-3-(methyloxy)phenyl]carbonyl}amino)-8-azabicyclo[3.2.1]oct-8-yl]pyridine-3-carboxamide]
21,< 500,COc1ccc(CNC(=O)c2ccc(N3[C@@H]4CC[C@H]3C[C@@H](NC(=O)c3cccc(OC)c3C)C4)nc2)c(F)c1 [N-{[2-fluoro-4-(methyloxy)phenyl]methyl}-6-[3-endo-({[2-methyl-3-(methyloxy)phenyl]carbonyl}amino)-8-azabicyclo[3.2.1]oct-8-yl]pyridine-3-carboxamide]
22,1000 to 2000,COc1cccc(C(=O)N[C@H]2C[C@H]3CC[C@@H](C2)N3c2ccc(C(=O)NCc3c(F)cccc3OC)cn2)c1C [N-{[2-fluoro-6-(methyloxy)phenyl]methyl}-6-[3-endo-({[2-methyl-3-(methyloxy)phenyl]carbonyl}amino)-8-azabicyclo[3.2.1]oct-8-yl]pyridine-3-carboxamide]
23,1000 to 2000,"COc1cc(CNC(=O)c2ccc(N3[C@@H]4CC[C@H]3C[C@@H](NC(=O)c3cccc(OC)c3C)C4)nc2)cc(OC)c1 [N-{[3,5-bis(methyloxy)phenyl]methyl}-6-[3-endo-({[2-methyl-3-(methyloxy)phenyl]carbonyl}amino)-8-azabicyclo[3.2.1]oct-8-yl]pyridine-3-carboxamide]"
24,< 500,COc1cccc(C(=O)N[C@H]2C[C@H]3CC[C@@H](C2)N3c2ccc(C(=O)NCc3ccc(N4CCN(C)CC4)c(F)c3)cn2)c1C [N-{[3-fluoro-4-(4-methylpiperazin-1-yl)phenyl]methyl}-6-[3-endo-({[2-methyl-3-(methyloxy)phenyl]carbonyl}amino)-8-azabicyclo[3.2.1]oct-8-yl]pyridine-3-carboxamide]
25,< 500,COc1ccc(CNC(=O)c2ccc(N3[C@@H]4CC[C@H]3C[C@@H](NC(=O)c3cccc(OC)c3C)C4)nc2)cc1F [N-{[3-fluoro-4-(methyloxy)phenyl]methyl}-6-[3-endo-({[2-methyl-3-(methyloxy)phenyl]carbonyl}amino)-8-azabicyclo[3.2.1]oct-8-yl]pyridine-3-carboxamide]
26,1000 to 2000,COc1cc(F)ccc1CNC(=O)c1ccc(N2[C@@H]3CC[C@H]2C[C@@H](NC(=O)c2cccc(OC)c2C)C3)nc1 [N-{[4-fluoro-2-(methyloxy)phenyl]methyl}-6-[3-endo-({[2-methyl-3-(methyloxy)phenyl]carbonyl}amino)-8-azabicyclo[3.2.1]oct-8-yl]pyridine-3-carboxamide]
27,500 to 999,COc1cc(CNC(=O)c2ccc(N3[C@@H]4CC[C@H]3C[C@@H](NC(=O)c3cccc(OC)c3C)C4)nc2)ccc1F [N-{[4-fluoro-3-(methyloxy)phenyl]methyl}-6-[3-endo-({[2-methyl-3-(methyloxy)phenyl]carbonyl}amino)-8-azabicyclo[3.2.1]oct-8-yl]pyridine-3-carboxamide]
28,< 500,CCOC(=O)N1CCC(NC(=O)c2ccc(N3[C@@H]4CC[C@H]3C[C@@H](NC(=O)c3cccc(OC)c3C)C4)nc2)CC1 [ethyl 4-[({6-[3-endo-({[2-methyl-3-(methyloxy)phenyl]carbonyl}amino)-8-azabicyclo[3.2.1]oct-8-yl]pyridin-3-yl}carbonyl)amino]piperidine-1-carboxylate]
